Experimental data reported in paper PMC7280082 (Acta Pharmaceutica Sinica. B, 2019).

Experiments:
WT HIV-1 (IIIB) = assay: microbe, parasite or virus in culture; format: cell-based; settings: for EC50: Human immunodeficiency virus 1, IIIB, MT4, read-out: EC50 IIIB; for SI IIIB: ratio of CC50/EC50
[1] = test system: HIV-1 F227L + V106A double-mutant strain; assay: microbe, parasite or virus in culture; format: cell-based; settings: for SI F227L + V106A: CC50/EC50; for EC50: Human immunodeficiency virus 1, MT4, read-out: EC50 F227L + V106A; for RF F227L + V106A: ratio of EC50 (resistant viral strain)/EC50 (wild-type viral strain)
[2] = test system: HIV-1 RES056 (K103N + Y181C) double-mutant strain; assay: microbe, parasite or virus in culture; format: cell-based; settings: for SI RES056: CC50/EC50; for EC50: Human immunodeficiency virus 1, MT4, read-out: EC50 RES056; for RF RES056: ratio of EC50 (resistant viral strain)/EC50 (wild-type viral strain)
HIV-2 strain (ROD) = assay: Anti-HIV-2; format: cell-based; settings: for EC50: Human immunodeficiency virus 2, MT4, read-out: EC50 ROD; for SI ROD: ratio of CC50/EC50
[3] = test system: HIV-1 Y188L mutant strain; assay: microbe, parasite or virus in culture; format: cell-based; settings: for SI Y188L: CC50/EC50; for EC50: Human immunodeficiency virus 1, MT4, read-out: EC50 Y188L; for RF Y188L: ratio of EC50 (resistant viral strain)/EC50 (wild-type viral strain)
[4] = test system: HIV-1 Y181C mutant strain; assay: microbe, parasite or virus in culture; format: cell-based; settings: for SI Y181C: CC50/EC50; for EC50: Human immunodeficiency virus 1, MT4, read-out: EC50 Y181C; for RF Y181C: ratio of EC50 (resistant viral strain)/EC50 (wild-type viral strain)
[5] = test system: HIV-1 E138K mutant strain; assay: microbe, parasite or virus in culture; format: cell-based; settings: for SI E138K: CC50/EC50; for EC50: Human immunodeficiency virus 1, MT4, read-out: EC50 E138K; for RF E138K: ratio of EC50 (resistant viral strain)/EC50 (wild-type viral strain)
[6] = test system: HIV-1 K103N mutant strain; assay: microbe, parasite or virus in culture; format: cell-based; settings: for SI K103N: CC50/EC50; for EC50: Human immunodeficiency virus 1, MT4, read-out: EC50 K103N; for RF K103N: ratio of EC50 (resistant viral strain)/EC50 (wild-type viral strain)
[7] = Cytotoxicity in mock-infected MT-4 cell cultures, MTT method; settings: human, mock-infected MT-4 cells
WT HIV-1 RT = WT HIV-1 RT (Human immunodeficiency virus type 1 group M subtype B, UniProt P03366); assay: Recombinant HIV-1 RT inhibitory assay; format: biochemical
[8] = test system: HIV-1 L100I mutant strain; assay: microbe, parasite or virus in culture; format: cell-based; settings: for SI L100I: CC50/EC50; for EC50: Human immunodeficiency virus 1, MT4, read-out: EC50 L100I; for RF L100I: ratio of EC50 (resistant viral strain)/EC50 (wild-type viral strain)

SMILES | EC50 (WT HIV-1 (IIIB)) | SI IIIB (WT HIV-1 (IIIB)) | SI F227L + V106A [1] | EC50 [1] | RF F227L + V106A [1] | SI RES056 [2] | EC50 [2] | RF RES056 [2] | EC50 (HIV-2 strain (ROD)) | SI ROD (HIV-2 strain (ROD)) | SI Y188L [3] | EC50 [3] | RF Y188L [3] | SI Y181C [4] | EC50 [4] | RF Y181C [4] | SI E138K [5] | EC50 [5] | RF E138K [5] | SI K103N [6] | other results
Cc1cc(-c2ccc(N(C)C)cc2)cc(C)c1Oc1nc(NC2CCN(Cc3ccc(S(N)(=O)=O)cc3)CC2)nc2ccsc12 [Compound 29, 4-((4-((4-((4'-(Dimethylamino)-3,5-dimethyl-[1,1′-biphenyl]-4-yl)oxy)thieno[3,2-d]pyrimidin-2-yl)amino)piperidin-1-yl)methyl)benzenesulfonamide] | 79.2 ± 48.7 nM | 232 | 131 | 140 ± 1.31 nM | 1.8 | 11 | 1680 ± 388 nM | 21.2 | > 18400 nM | <1 | 68 | 269 ± 30 nM | 3.4 | 71 | 260 ± 30.2 nM | 3.3 | 100 | 183 ± 19.4 nM | 2.3 | 189 | EC50 [6]: 97.2 ± 3.07 nM; RF K103N [6]: 1.2; CC50 at 5 days [7]: 18300 ± 4500 nM; IC50 (WT HIV-1 RT): 477 ± 9 nM; SI L100I [8]: 74; EC50 [8]: 247 ± 4.5 nM; RF L100I [8]: 3.1
Cc1cc(-c2ccc(N(C)C)cc2)cc(C)c1Oc1nc(NC2CCN(Cc3ccc(C(N)=O)cc3)CC2)nc2ccsc12 [Compound 30, 4-((4-((4-((4'-(Dimethylamino)-3,5-dimethyl-[1,1′-biphenyl]-4-yl)oxy)thieno[3,2-d]pyrimidin-2-yl)amino)piperidin-1-yl)methyl)benzamide] | 176 ± 26.4 nM | 134 | 19 | 1250 ± 804 nM | 7.1 | < 1 | > 23500 nM | > 133 | > 23500 nM | <1 | 42 | 556 ± 57.4 nM | 3.2 | 40 | 585 ± 33.3 nM | 3.3 | 96 | 245 ± 173 nM | 1.4 | 135 | EC50 [6]: 173 ± 46.3 nM; RF K103N [6]: 1.0; CC50 at 5 days [7]: 23500 ± 380 nM; IC50 (WT HIV-1 RT): 473 ± 59 nM; SI L100I [8]: 21; EC50 [8]: 1120 ± 543 nM; RF L100I [8]: 6.3
Cc1cc(-c2cccs2)cc(C)c1Oc1nc(NC2CCN(Cc3ccc(S(N)(=O)=O)cc3)CC2)nc2ccsc12 [Compound 15, 4-((4-((4-(2,6-Dimethyl-4-(thiophen-2-yl)phenoxy)thieno[3,2-d]pyrimidin-2-yl)amino)piperidin-1-yl)methyl)benzenesulfonamide] | 49.5 ± 14.8 nM | 435 | 380 | 56.7 ± 16.2 nM | 1.1 | 22 | 999 ± 151 nM | 20.2 | 5110 ± 1710 nM | 4 | 203 | 106 ± 43.6 nM | 2.1 | 235 | 91.7 ± 18.2 nM | 1.9 | 173 | 124 ± 88.7 nM | 2.5 | 932 | EC50 [6]: 23.1 ± 2.56 nM; RF K103N [6]: 0.5; CC50 at 5 days [7]: 21500 ± 890 nM; IC50 (WT HIV-1 RT): 227 ± 46 nM; SI L100I [8]: 220; EC50 [8]: 97.9 ± 62.4 nM; RF L100I [8]: 2.0
Cc1cc(-c2ccoc2)cc(C)c1Oc1nc(NC2CCN(Cc3ccc(S(N)(=O)=O)cc3)CC2)nc2ccsc12 [Compound 13, 4-((4-((4-(4-(Furan-3-yl)-2,6-dimethylphenoxy)thieno[3,2-d]pyrimidin-2-yl)amino)piperidin-1-yl)methyl)benzenesulfonamide] | 63.6 ± 11.4 nM | 246 | 44 | 358 ± 18.4 nM | 5.6 | 13 | 1190 ± 184 nM | 18.8 | 6800 ± 1220 nM | 2 | 117 | 133 ± 3.35 nM | 2.1 | 79 | 197 ± 16.1 nM | 3.1 | 81 | 193 ± 14.8 nM | 3.0 | 249 | EC50 [6]: 62.9 ± 10.4 nM; RF K103N [6]: 1.0; CC50 at 5 days [7]: 15600 ± 4970 nM; IC50 (WT HIV-1 RT): 265 ± 59 nM; SI L100I [8]: 84; EC50 [8]: 186 ± 29.4 nM; RF L100I [8]: 2.9
Cc1cc(-c2cccc(C#N)c2)cc(C)c1Oc1nc(NC2CCN(Cc3ccc(C(N)=O)cc3)CC2)nc2ccsc12 [Compound 28, 4-((4-((4-((3′-Cyano-3,5-dimethyl-[1,1′-biphenyl]-4-yl)oxy)thieno[3,2-d]pyrimidin-2-yl)amino)piperidin-1-yl)methyl)benzamide] | 23.4 ± 16.9 nM | 178 | 26 | 157 ± 6.6 nM | 6.7 | 10 | 402 ± 41.9 nM | 17.2 | > 4170 nM | <1 | 57 | 73.4 ± 5.16 nM | 3.1 | 81 | 51.6 ± 4.32 nM | 2.2 | 99 | 41.9 ± 4.56 nM | 1.8 | 208 | EC50 [6]: 20 ± 1.2 nM; RF K103N [6]: 0.9; CC50 at 5 days [7]: 4160 ± 1750 nM; IC50 (WT HIV-1 RT): 202 ± 20 nM; SI L100I [8]: 83; EC50 [8]: 50.2 ± 10.3 nM; RF L100I [8]: 2.1
Cc1cc(-c2ccc(C#N)cc2)cc(C)c1Oc1nc(NC2CCN(Cc3ccc(S(N)(=O)=O)cc3)CC2)nc2ccsc12 [Compound 25, 4-((4-((4-((4′-Cyano-3,5-dimethyl-[1,1′-biphenyl]-4-yl)oxy)thieno[3,2-d]pyrimidin-2-yl)amino)piperidin-1-yl)methyl)benzenesulfonamide] | 17 ± 5.78 nM | 312 | 89 | 59.9 ± 10.2 nM | 3.5 | 51 | 103 ± 3.39 nM | 6.1 | 5560 ± 42.3 nM | 1 | 99 | 53.6 ± 3.5 nM | 3.2 | 173 | 30.8 ± 0.11 nM | 1.8 | 120 | 44.4 ± 3.62 nM | 2.6 | 403 | EC50 [6]: 13.2 ± 0.33 nM; RF K103N [6]: 0.8; CC50 at 5 days [7]: 5310 ± 2560 nM; IC50 (WT HIV-1 RT): 288 ± 26 nM; SI L100I [8]: 194; EC50 [8]: 27.4 ± 4.41 nM; RF L100I [8]: 1.6
Cc1cc(-c2ccccc2)cc(C)c1Oc1nc(NC2CCN(Cc3ccc(S(N)(=O)=O)cc3)CC2)nc2ccsc12 [Compound 19, 4-((4-((4-((3,5-Dimethyl-[1,1′-biphenyl]-4-yl)oxy)thieno[3,2-d]pyrimidin-2-yl)amino)piperidin-1-yl)methyl)benzenesulfonamide] | 43.8 ± 15.6 nM | 487 | 106 | 200 ± 10.4 nM | 4.6 | 12 | 1710 ± 473 nM | 39.1 | 6140 ± 272 nM | 3 | 176 | 121 ± 9.19 nM | 2.8 | 127 | 167 ± 24.5 nM | 3.8 | 200 | 107 ± 18.8 nM | 2.4 | 356 | EC50 [6]: 59.9 ± 6.01 nM; RF K103N [6]: 1.4; CC50 at 5 days [7]: 21300 ± 1260 nM; IC50 (WT HIV-1 RT): 164 ± 5 nM; SI L100I [8]: 62; EC50 [8]: 344 ± 117 nM; RF L100I [8]: 7.9
Cc1cc(-c2cccc(N(C)C)c2)cc(C)c1Oc1nc(NC2CCN(Cc3ccc(C(N)=O)cc3)CC2)nc2ccsc12 [Compound 32, 4-((4-((4-((3'-(Dimethylamino)-3,5-dimethyl-[1,1′-biphenyl]-4-yl)oxy)thieno[3,2-d]pyrimidin-2-yl)amino)piperidin-1-yl)methyl)benzamide] | 163 ± 57.8 nM | 121 | 25 | 783 ± 196 nM | 4.8 | 5 | 4300 ± 1540 nM | 26.2 | 4660 ± 824 nM | 4 | 36 | 552 ± 45.6 nM | 3.4 | 32 | 626 ± 39.2 nM | 3.8 | 100 | 198 ± 34.2 nM | 1.2 | 93 | EC50 [6]: 212 ± 7.34 nM; RF K103N [6]: 1.3; CC50 at 5 days [7]: 19800 ± 4470 nM; IC50 (WT HIV-1 RT): 271 ± 16 nM; SI L100I [8]: 17; EC50 [8]: 1140 ± 99.2 nM; RF L100I [8]: 6.9
